The target of test [1] is T1, Serine/threonine-protein kinase Nek3 (Homo sapiens) (UniProt P51956).
T1 sequence (whole entry): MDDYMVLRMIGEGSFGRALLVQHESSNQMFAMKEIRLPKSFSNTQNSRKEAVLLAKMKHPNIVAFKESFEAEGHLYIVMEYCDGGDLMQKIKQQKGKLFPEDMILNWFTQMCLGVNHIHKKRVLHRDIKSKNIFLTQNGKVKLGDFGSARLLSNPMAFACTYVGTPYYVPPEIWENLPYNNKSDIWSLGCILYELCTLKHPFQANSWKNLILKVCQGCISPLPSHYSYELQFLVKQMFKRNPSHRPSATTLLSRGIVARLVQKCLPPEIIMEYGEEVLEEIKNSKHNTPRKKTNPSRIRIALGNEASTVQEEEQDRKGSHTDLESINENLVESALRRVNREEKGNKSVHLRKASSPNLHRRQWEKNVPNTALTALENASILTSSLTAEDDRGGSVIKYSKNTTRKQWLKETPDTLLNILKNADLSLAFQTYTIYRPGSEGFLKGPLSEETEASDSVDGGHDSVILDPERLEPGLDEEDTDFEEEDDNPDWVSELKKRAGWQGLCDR
Briefly: Selectivity interaction (KinomeScan (DiscoverX)) EUB0001049a NEK3. The following applies: at 1 µM.

The target of the next test is D(1A) dopamine receptor (Homo sapiens, UniProt P21728). The test can be described thus: Selectivity interaction (Panel of non-epigenetic targets (kinases, GPCRs, ion channels, and transporters, Eurofins) ) EUB0000271b DRD1. The following applies: at 1 µM.
In test [2] the target is T2, Aurora kinase C (Homo sapiens) (UniProt Q9UQB9).
T2 sequence (whole entry): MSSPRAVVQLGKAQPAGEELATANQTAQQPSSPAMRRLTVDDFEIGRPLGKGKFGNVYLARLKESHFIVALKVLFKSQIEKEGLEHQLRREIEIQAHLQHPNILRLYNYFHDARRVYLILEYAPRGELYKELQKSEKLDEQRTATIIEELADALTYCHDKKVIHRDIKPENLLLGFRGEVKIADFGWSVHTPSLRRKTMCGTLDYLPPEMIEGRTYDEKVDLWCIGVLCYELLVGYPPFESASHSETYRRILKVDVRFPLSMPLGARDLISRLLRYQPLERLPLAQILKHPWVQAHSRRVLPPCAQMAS
The test can be described thus: Selectivity interaction (SelectScreen profiling (Invitrogen)) EUB0000607a AURKC. The following applies: at 2 µM.

In test [3] the target is T3, STE20-related kinase adapter protein alpha (Homo sapiens) (UniProt Q7RTN6).
T3 sequence (whole entry): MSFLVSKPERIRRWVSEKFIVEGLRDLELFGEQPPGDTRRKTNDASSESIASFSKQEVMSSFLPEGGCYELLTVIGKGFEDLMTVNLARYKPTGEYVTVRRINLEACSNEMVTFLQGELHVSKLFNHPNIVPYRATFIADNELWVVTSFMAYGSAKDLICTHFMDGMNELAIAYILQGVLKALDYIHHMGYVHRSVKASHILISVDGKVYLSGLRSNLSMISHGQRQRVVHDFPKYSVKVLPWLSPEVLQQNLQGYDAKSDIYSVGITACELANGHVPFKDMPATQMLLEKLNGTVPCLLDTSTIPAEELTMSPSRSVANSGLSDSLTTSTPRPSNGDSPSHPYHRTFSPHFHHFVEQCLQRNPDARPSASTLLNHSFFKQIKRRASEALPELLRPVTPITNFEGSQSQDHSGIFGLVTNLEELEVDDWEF
Briefly: Selectivity interaction (ActivX KiNativ screen (kinase selectivity in THP-1 cell lysates)) EUB0000639a STRADA. The class given is subcellular. The following applies: lysate, at 0.04 µM.

Test [4] concerns the target Serine/threonine-protein kinase RIO2 (Homo sapiens) (UniProt Q9BVS4). Briefly: Selectivity interaction (KinomeScan (DiscoverX)) EUB0000595a RIOK2. The following applies: at 10 µM.
Test [5] addresses T4, Eukaryotic translation initiation factor 2-alpha kinase 3 (Homo sapiens) (UniProt Q9NZJ5).
T4 sequence (whole entry): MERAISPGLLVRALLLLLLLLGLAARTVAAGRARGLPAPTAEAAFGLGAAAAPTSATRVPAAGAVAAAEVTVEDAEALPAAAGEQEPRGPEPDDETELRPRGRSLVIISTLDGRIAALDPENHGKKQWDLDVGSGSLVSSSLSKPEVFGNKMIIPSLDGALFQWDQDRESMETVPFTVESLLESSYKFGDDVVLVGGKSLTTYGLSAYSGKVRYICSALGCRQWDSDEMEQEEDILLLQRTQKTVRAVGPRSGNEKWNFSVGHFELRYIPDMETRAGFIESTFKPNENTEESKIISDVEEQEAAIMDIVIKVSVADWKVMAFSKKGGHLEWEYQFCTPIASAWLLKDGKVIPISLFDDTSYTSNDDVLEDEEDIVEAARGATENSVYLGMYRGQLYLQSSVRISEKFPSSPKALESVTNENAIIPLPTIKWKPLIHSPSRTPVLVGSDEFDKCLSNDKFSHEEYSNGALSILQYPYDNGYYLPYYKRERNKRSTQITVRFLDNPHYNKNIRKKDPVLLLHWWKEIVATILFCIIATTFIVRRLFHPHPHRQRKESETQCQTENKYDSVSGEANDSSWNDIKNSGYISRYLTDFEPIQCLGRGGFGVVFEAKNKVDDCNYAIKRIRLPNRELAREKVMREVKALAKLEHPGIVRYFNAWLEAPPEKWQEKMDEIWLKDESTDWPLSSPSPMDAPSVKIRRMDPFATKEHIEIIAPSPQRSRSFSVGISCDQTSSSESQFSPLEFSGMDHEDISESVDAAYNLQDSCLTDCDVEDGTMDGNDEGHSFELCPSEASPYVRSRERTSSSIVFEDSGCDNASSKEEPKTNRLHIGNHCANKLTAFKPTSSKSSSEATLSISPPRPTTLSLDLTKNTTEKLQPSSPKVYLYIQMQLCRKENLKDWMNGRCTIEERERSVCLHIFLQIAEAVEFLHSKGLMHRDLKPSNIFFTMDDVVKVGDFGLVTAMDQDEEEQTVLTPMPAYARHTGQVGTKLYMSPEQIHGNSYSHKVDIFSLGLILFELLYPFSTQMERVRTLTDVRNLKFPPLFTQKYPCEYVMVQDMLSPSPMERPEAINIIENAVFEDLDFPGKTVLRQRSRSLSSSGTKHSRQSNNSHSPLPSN
Briefly: Selectivity interaction (Kinase panel (KiNativ target engagement assay in Jurkat cells)) EUB0001635a EIF2AK3. The format is cell-based. The following applies: Selectivity number of off-targets 0.0, Selectivity number of targets 233.0, Source Knowledge https://www.sciencedirect.com/science/article/pii/S2451945619300674?via%3Dihub, at 1 µM.

Molecules are shown by their SMILES.

D(1A) dopamine receptor, sequence (P21728 whole entry): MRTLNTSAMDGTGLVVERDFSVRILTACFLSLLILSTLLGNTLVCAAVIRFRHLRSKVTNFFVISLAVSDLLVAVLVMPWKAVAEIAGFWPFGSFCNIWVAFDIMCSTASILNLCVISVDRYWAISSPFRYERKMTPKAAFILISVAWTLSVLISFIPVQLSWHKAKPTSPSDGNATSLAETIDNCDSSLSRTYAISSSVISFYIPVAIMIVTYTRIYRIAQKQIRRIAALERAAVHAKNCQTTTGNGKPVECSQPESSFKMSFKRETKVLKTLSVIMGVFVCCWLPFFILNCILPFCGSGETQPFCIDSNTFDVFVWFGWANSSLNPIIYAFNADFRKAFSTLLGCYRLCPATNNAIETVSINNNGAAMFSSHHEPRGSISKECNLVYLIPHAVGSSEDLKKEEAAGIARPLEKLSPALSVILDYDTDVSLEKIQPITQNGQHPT
Serine/threonine-protein kinase RIO2 (Homo sapiens), sequence (Q9BVS4 whole entry, looked up): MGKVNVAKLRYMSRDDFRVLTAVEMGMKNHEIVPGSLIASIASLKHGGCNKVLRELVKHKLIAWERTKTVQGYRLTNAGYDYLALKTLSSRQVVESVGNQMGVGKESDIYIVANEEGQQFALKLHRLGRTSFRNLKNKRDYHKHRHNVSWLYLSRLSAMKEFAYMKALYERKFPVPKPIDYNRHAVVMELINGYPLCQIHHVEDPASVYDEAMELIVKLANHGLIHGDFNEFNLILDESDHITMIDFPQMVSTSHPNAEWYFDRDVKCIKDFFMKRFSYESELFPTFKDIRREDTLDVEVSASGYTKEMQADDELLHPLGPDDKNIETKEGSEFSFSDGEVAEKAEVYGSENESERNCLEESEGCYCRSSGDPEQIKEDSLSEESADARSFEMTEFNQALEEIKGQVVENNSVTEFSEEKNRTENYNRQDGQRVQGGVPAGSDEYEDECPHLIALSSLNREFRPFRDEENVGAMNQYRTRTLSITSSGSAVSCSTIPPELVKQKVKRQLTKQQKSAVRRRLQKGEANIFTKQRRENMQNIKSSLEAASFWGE

`COc1cc(Nc2nc(C)cc(-c3cnn4nc(OC)ccc34)n2)cc(C(F)(F)F)c1` yielded a % of control in test [1] of 92%.

With `Cc1cc(C)cc([C@@H]2c3cc(C)ccc3NC(=O)CN2C(=O)c2ccc(Br)s2)c1`, the % of inhibition on D(1A) dopamine receptor stood at 9%.

Consider `CNC(=O)Nc1ccc(-c2nc(N3CC4CCC(C3)O4)c3cnn(C4CCC5(CC4)OCCO5)c3n2)cc1`, for which the % of inhibition in test [2] was found to be 4%.

`CC[C@@H]1[C@H](F)C(=O)N[C@@H]1COc1nccc2cc(C(N)=O)c(OC)cc12` [ZIMLOVISERTIB]: the % of inhibition in test [3] is -6%.

As for `COCC(=O)NC/C=C/c1ccc2ncnc(Nc3ccc(Oc4ccc(C)nc4)c(C)c3)c2c1` [CP-724714], the % of control in test [4] was found to be 100%.

As for `C=CC(=O)Nc1ccc(C(=O)Nc2[nH]nc3c2CN(C(=O)N[C@H](CN(C)C)c2ccccc2)C3(C)C)cc1`, in test [5], the % of engagement was -7.7%.

The values above are taken from ChEMBL document CHEMBL5465560, “Selectivity Literature for EUbOPEN Chemogenomic Library” (2024).
